According to US11713341B1, “Antimicrobial NCR13 variant peptides” (Vestaron Corporation, priority 2022, dated 2023):
Where a SMILES comes first, the peptide text is derived from it.

Tested on: Botrytis cinerea
Assay: Antimicrobial bioassay (Botrytis cinerea): growth inhibition by OD600
Format: cell-based
Settings: for anti-Botrytis activities relative to NCR13a: Botrytis cinerea growth, comparison with NCR13a; for Activity ratio to NCR13a: anti-Botrytis cinerea activity (IC50) relative to comparator NCR13a
Description: The antimicrobial effect of the NCR13 variant peptides (NVPs) of the present disclosure were evaluated against the fungal species, Botrytis cinerea. […] The growth of Botrytis cinerea was then assessed via OD600 nm after incubation with a given NVP at room temperature after 96 hours. The IC50 of each peptide analyzed is shown in ppm.
The antimicrobial effect of the NCR13 variant peptides (NVPs) of the present disclosure were evaluated against the fungal species, Botrytis cinerea. […] The growth of Botrytis cinerea was then assessed via OD600 nm after incubation with a given NVP at room temperature after 96 hours.
The NVPs assessed were as follows: NVPM3 (+L) (SEQ ID NO: 5); NVPM5 (+M) (SEQ ID NO: 7); NVPM6 (+F) (SEQ ID NO: 8); NVPM7 (+W) (SEQ ID NO: 9); NVPM9 (+S) (SEQ ID NO: 11); NVPM11 (+Y) (SEQ ID NO: 13); NVPM14 (+D) (SEQ ID NO: 16); and NVPM15 (+E) (SEQ ID NO: 17).
NVPs having an amino acid sequence of SEQ ID NOs: 5, 7, 8, 9, 11, 13, 16, and 17 were generated as described above in Example 1. The peptide, NCR13a, having an amino acid sequence of: […] (SEQ ID NO: 2) was selected as a comparator peptide, with which the antifungal activity of the foregoing NVPs was compared.
The fungal species was Botrytis cinerea was cultured in potato dextrose agar plates. Fungal spores were collected from the agar plates and suspended into de-ionized water, followed by enumeration in a Petroff-Hausser counting chamber (VWR).
The 96-well plates were incubated at room temperature for 96 hours without shaking. The OD600 of the culture plate was determined using SpectraMax plate reader. Relative OD600 was determined by normalizing cell growth to control wells containing neither NVPs nor NCR13a. The OD600 was used to determine IC50.

CC[C@H](C)[C@H](NC(=O)[C@H](CS)NC(=O)[C@H](CCCCN)NC(=O)[C@@H]1CCCN1C(=O)[C@@H](NC(=O)[C@H](CCCCN)NC(=O)[C@@H]1CCCN1C(=O)[C@H](CCCCN)NC(=O)[C@H](CCCNC(=N)N)NC(=O)[C@H](CS)NC(=O)[C@H](C)NC(=O)[C@H](Cc1ccccc1)NC(=O)[C@H](CCCCN)NC(=O)[C@H](CCCCN)NC(=O)[C@H](CS)NC(=O)[C@H](CC(=O)O)NC(=O)[C@H](CCCCN)NC(=O)[C@H](CC(=O)O)NC(=O)[C@H](CO)NC(=O)[C@H](CCC(N)=O)NC(=O)[C@H](CS)NC(=O)[C@@H]1CCCN1C(=O)[C@H](CCCCN)NC(=O)[C@@H](NC(=O)[C@@H](N)CCSC)[C@@H](C)O)C(C)C)C(=O)N[C@@H](CC(N)=O)C(=O)NCC(=O)N[C@@H](Cc1ccccc1)C(=O)N[C@@H](CS)C(=O)N[C@@H](CCCCN)C(=O)N[C@@H](CS)C(=O)N[C@H](C(=O)N[C@@H](CCCNC(=N)N)C(=O)O)C(C)C [NVPM5] (H-MTKPCQSDKDCKKFACRKPKVPKCINGFCKCVR-OH; N-terminus and C-terminus assumed)
anti-Botrytis activities relative to NCR13a: improved anti-Botrytis activities relative to NCR13a
Activity ratio to NCR13a: 2.74

CC[C@H](C)[C@H](NC(=O)[C@H](CS)NC(=O)[C@H](CCCCN)NC(=O)[C@@H]1CCCN1C(=O)[C@@H](NC(=O)[C@H](CCCCN)NC(=O)[C@@H]1CCCN1C(=O)[C@H](CCCCN)NC(=O)[C@H](CCCNC(=N)N)NC(=O)[C@H](CS)NC(=O)[C@H](C)NC(=O)[C@H](Cc1ccccc1)NC(=O)[C@H](CCCCN)NC(=O)[C@H](CCCCN)NC(=O)[C@H](CS)NC(=O)[C@H](CC(=O)O)NC(=O)[C@H](CCCCN)NC(=O)[C@H](CC(=O)O)NC(=O)[C@H](CO)NC(=O)[C@H](CCC(N)=O)NC(=O)[C@H](CS)NC(=O)[C@@H]1CCCN1C(=O)[C@H](CCCCN)NC(=O)[C@@H](NC(=O)[C@@H](N)CCC(=O)O)[C@@H](C)O)C(C)C)C(=O)N[C@@H](CC(N)=O)C(=O)NCC(=O)N[C@@H](Cc1ccccc1)C(=O)N[C@@H](CS)C(=O)N[C@@H](CCCCN)C(=O)N[C@@H](CS)C(=O)N[C@H](C(=O)N[C@@H](CCCNC(=N)N)C(=O)O)C(C)C [NVPM15] (H-ETKPCQSDKDCKKFACRKPKVPKCINGFCKCVR-OH; N-terminus and C-terminus assumed)
anti-Botrytis activities relative to NCR13a: improved anti-Botrytis activities relative to NCR13a
Activity ratio to NCR13a: 1.43

CC[C@H](C)[C@H](NC(=O)[C@H](CS)NC(=O)[C@H](CCCCN)NC(=O)[C@@H]1CCCN1C(=O)[C@@H](NC(=O)[C@H](CCCCN)NC(=O)[C@@H]1CCCN1C(=O)[C@H](CCCCN)NC(=O)[C@H](CCCNC(=N)N)NC(=O)[C@H](CS)NC(=O)[C@H](C)NC(=O)[C@H](Cc1ccccc1)NC(=O)[C@H](CCCCN)NC(=O)[C@H](CCCCN)NC(=O)[C@H](CS)NC(=O)[C@H](CC(=O)O)NC(=O)[C@H](CCCCN)NC(=O)[C@H](CC(=O)O)NC(=O)[C@H](CO)NC(=O)[C@H](CCC(N)=O)NC(=O)[C@H](CS)NC(=O)[C@@H]1CCCN1C(=O)[C@H](CCCCN)NC(=O)[C@@H](NC(=O)[C@@H](N)Cc1ccc(O)cc1)[C@@H](C)O)C(C)C)C(=O)N[C@@H](CC(N)=O)C(=O)NCC(=O)N[C@@H](Cc1ccccc1)C(=O)N[C@@H](CS)C(=O)N[C@@H](CCCCN)C(=O)N[C@@H](CS)C(=O)N[C@H](C(=O)N[C@@H](CCCNC(=N)N)C(=O)O)C(C)C [NVPM11] (H-YTKPCQSDKDCKKFACRKPKVPKCINGFCKCVR-OH; N-terminus and C-terminus assumed)
anti-Botrytis activities relative to NCR13a: improved anti-Botrytis activities relative to NCR13a
Activity ratio to NCR13a: 1.77

CC[C@H](C)[C@H](NC(=O)[C@H](CS)NC(=O)[C@H](CCCCN)NC(=O)[C@@H]1CCCN1C(=O)[C@@H](NC(=O)[C@H](CCCCN)NC(=O)[C@@H]1CCCN1C(=O)[C@H](CCCCN)NC(=O)[C@H](CCCNC(=N)N)NC(=O)[C@H](CS)NC(=O)[C@H](C)NC(=O)[C@H](Cc1ccccc1)NC(=O)[C@H](CCCCN)NC(=O)[C@H](CCCCN)NC(=O)[C@H](CS)NC(=O)[C@H](CC(=O)O)NC(=O)[C@H](CCCCN)NC(=O)[C@H](CC(=O)O)NC(=O)[C@H](CO)NC(=O)[C@H](CCC(N)=O)NC(=O)[C@H](CS)NC(=O)[C@@H]1CCCN1C(=O)[C@H](CCCCN)NC(=O)[C@@H](NC(=O)[C@@H](N)CC(C)C)[C@@H](C)O)C(C)C)C(=O)N[C@@H](CC(N)=O)C(=O)NCC(=O)N[C@@H](Cc1ccccc1)C(=O)N[C@@H](CS)C(=O)N[C@@H](CCCCN)C(=O)N[C@@H](CS)C(=O)N[C@H](C(=O)N[C@@H](CCCNC(=N)N)C(=O)O)C(C)C [NVPM3] (H-LTKPCQSDKDCKKFACRKPKVPKCINGFCKCVR-OH; N-terminus and C-terminus assumed)
anti-Botrytis activities relative to NCR13a: improved anti-Botrytis activities relative to NCR13a
Activity ratio to NCR13a: 4.14
